Measured values from patent US8846845B2, “Bioabsorbable and biocompatible polyurethanes and polyamides for medical devices” (Bezwada Biomedical, LLC, priority 2005, dated 2014).

Experiment: In vitro hydrolysis of functionalized phenolics in pH 7.4 buffer at reflux, monitored by TLC
Type: physicochemical
Settings: reflux temp. (100° C.); 500 mg compound in 50 ml pH 7.4 buffer solution; TLC against original phenolic as control
Description: Selected compounds were examined for the rate of hydrolysis by conducting in vitro hydrolysis studies at reflux temp. (100° C.). For each experiment, 500 mg of a func-tionalized compound and 50 ml of pH 7.4 buffer solution (purchased from Aldrich Chemical) were charged into a 100 ml round bottom flask fitted with a condenser and the contents were refluxed. In vitro hydrolysis of the functionalized phenolics was monitored by thin layer chromatography (TLC) using corresponding starting material (original phenolic) as a control. In vitro hydrolysis was continued at reflux until the functionalized molecule hydrolyzed to the starting phenolic compound.

**Q.** For `Nc1ccc(OCC(=O)OCCOC(=O)COc2ccc(N)cc2)cc1` [Example 25, (4-Amino-phenoxy)-acetic acid-2-[2-(4-amino-phenoxy)-acetoxy]-ethyl ester], which “time in which the functionalized compound was hydrolyzed to the starting phenolic compound” value (“time” below) is on record?
**A.** The value was 11.5 h.

**Q.** For `CC(Oc1ccc(N)cc1)C(=O)OCCOC(=O)C(C)Oc1ccc(N)cc1` (stereo not shown) [Example 32, 2-(4-Aminophenoxy)-propionic acid 2-[2-(4-aminophenoxy)-propionyloxy]-ethyl ester], which “time” value is on record?
**A.** Its value is 40 h.

**Q.** With `COC(=O)COC(=O)COc1ccc(N)cc1` [Example 45, (4-Aminophenoxy)-acetic acid methoxycarbonylmethyl ester] as the compound, how does the “time” value read?
**A.** The value was 3 h.

**Q.** Which “time” value does the source give for `COC(=O)COC(=O)COc1ccc(NC(C)=O)cc1` [Example 48, (4-Acetylaminophenoxy)acetic acid methoxycarbonyl methyl ester] here?
**A.** The value was 8 h.
